Data taken from PubChem BioAssay (NCI).
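The compound was tested at five concentrations on cells cultured in 96-well plates, with a 48-hour exposure period. Definition used: TGI = concentration required for complete inhibition of growth.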

Assays:
Assay in all cases: growth of human tumour cells (NCI), 48 h
SK-OV-3 ovarian = system: SK-OV-3 ovarian
MDA-MB-231 breast = system: MDA-MB-231 breast
UACC-257 melanoma = system: UACC-257 melanoma
NCI-H460 lung = system: NCI-H460 lung
SNB-75 CNS = system: SNB-75 CNS
EKVX NSCLC = system: EKVX NSCLC
M14 melanoma = system: M14 melanoma
HL-60(TB) leukemia = system: HL-60(TB) leukemia
CCRF-CEM leukemia = system: CCRF-CEM leukemia
NCI-H226 lung = system: NCI-H226 lung
RPMI-8226 leukemia = system: RPMI-8226 leukemia
T-47D breast = system: T-47D breast
SN12C renal = system: SN12C renal
TK-10 renal = system: TK-10 renal
MOLT-4 leukemia = system: MOLT-4 leukemia
SK-MEL-5 melanoma = system: SK-MEL-5 melanoma
HS 578T breast = system: HS 578T breast
NCI/ADR-RES ovarian = system: NCI/ADR-RES ovarian
A549 NSCLC = system: A549 NSCLC
NCI-H23 lung = system: NCI-H23 lung
HOP-62 NSCLC = system: HOP-62 NSCLC
BT-549 breast = system: BT-549 breast
U251 CNS = system: U251 CNS
SF-539 CNS = system: SF-539 CNS
A498 renal = system: A498 renal
UO-31 renal = system: UO-31 renal
MCF7 breast = system: MCF7 breast
MDA-N = system: MDA-N
786-0 renal = system: 786-0 renal
KM12 colon = system: KM12 colon
OVCAR-4 ovarian = system: OVCAR-4 ovarian
SW-620 colon = system: SW-620 colon
HOP-92 NSCLC = system: HOP-92 NSCLC
SF-268 CNS = system: SF-268 CNS
HCT-15 colon = system: HCT-15 colon
OVCAR-8 ovarian = system: OVCAR-8 ovarian
CAKI-1 renal = system: CAKI-1 renal
HCC-2998 colon = system: HCC-2998 colon
DU-145 prostate = system: DU-145 prostate
SR leukemia = system: SR leukemia
MALME-3M melanoma = system: MALME-3M melanoma
UACC-62 melanoma = system: UACC-62 melanoma
LOX IMVI melanoma = system: LOX IMVI melanoma
IGROV1 ovarian = system: IGROV1 ovarian
COLO 205 colon = system: COLO 205 colon
K-562 leukemia = system: K-562 leukemia
SNB-19 CNS = system: SNB-19 CNS
ACHN renal = system: ACHN renal
SF-295 CNS = system: SF-295 CNS
SK-MEL-2 melanoma = system: SK-MEL-2 melanoma
OVCAR-3 ovarian = system: OVCAR-3 ovarian
SK-MEL-28 melanoma = system: SK-MEL-28 melanoma
PC-3 prostate = system: PC-3 prostate
HT29 colon = system: HT29 colon
OVCAR-5 ovarian = system: OVCAR-5 ovarian
MDA-MB-435 = system: MDA-MB-435
HCT-116 colon = system: HCT-116 colon
NCI-H522 lung = system: NCI-H522 lung

Measured: TGI

CO/C(=N\N=C\c1ccc(OC)c(OC)c1)c1ccncc1
> 10 µM: SK-OV-3 ovarian | MDA-MB-231 breast | UACC-257 melanoma | NCI-H460 lung | SNB-75 CNS | EKVX NSCLC | M14 melanoma | HL-60(TB) leukemia | CCRF-CEM leukemia | NCI-H226 lung | RPMI-8226 leukemia | T-47D breast | SN12C renal | TK-10 renal | MOLT-4 leukemia | SK-MEL-5 melanoma | HS 578T breast | NCI/ADR-RES ovarian | A549 NSCLC | NCI-H23 lung | HOP-62 NSCLC | BT-549 breast | U251 CNS | SF-539 CNS | A498 renal | UO-31 renal | MCF7 breast | MDA-N | 786-0 renal | KM12 colon | OVCAR-4 ovarian | SW-620 colon | HOP-92 NSCLC | SF-268 CNS | HCT-15 colon | OVCAR-8 ovarian | CAKI-1 renal | HCC-2998 colon | DU-145 prostate | SR leukemia | MALME-3M melanoma | UACC-62 melanoma | LOX IMVI melanoma | IGROV1 ovarian | COLO 205 colon | K-562 leukemia

O=c1ssc(=Nc2ccccc2)n1-c1ccccc1
39.1 µM: T-47D breast
48.3 µM: M14 melanoma
> 100 µM: SK-OV-3 ovarian | NCI-H460 lung | SNB-75 CNS | EKVX NSCLC | SNB-19 CNS | CCRF-CEM leukemia | SF-295 CNS | TK-10 renal | MOLT-4 leukemia | SK-MEL-5 melanoma | A549 NSCLC | SF-539 CNS | A498 renal | MDA-N | KM12 colon | HCC-2998 colon | MALME-3M melanoma | SK-MEL-28 melanoma | UACC-62 melanoma | HT29 colon | OVCAR-5 ovarian | MDA-MB-435
50.6 µM: LOX IMVI melanoma
66.4 µM: COLO 205 colon
34.6 µM: 786-0 renal
57.5 µM: RPMI-8226 leukemia
35.7 µM: MCF7 breast
60.5 µM: MDA-MB-231 breast
38.9 µM: UACC-257 melanoma
98.7 µM: HS 578T breast
31.1 µM: ACHN renal
32.7 µM: OVCAR-8 ovarian
35 µM: HCT-15 colon
40.9 µM: SR leukemia
41.1 µM: SN12C renal
33.2 µM: OVCAR-4 ovarian
70.2 µM: K-562 leukemia
96.2 µM: HL-60(TB) leukemia
50.2 µM: NCI-H23 lung
53.9 µM: SK-MEL-2 melanoma
39.9 µM: DU-145 prostate
50 µM: U251 CNS
51.8 µM: SW-620 colon
68.2 µM: NCI/ADR-RES ovarian
98.5 µM: HOP-92 NSCLC
37.1 µM: SF-268 CNS
46.5 µM: NCI-H226 lung | HOP-62 NSCLC
38.5 µM: PC-3 prostate
31.7 µM: UO-31 renal
53.1 µM: OVCAR-3 ovarian

C=CC[C@@H](N)C(=O)N(C)[C@@H](C)[C@@H](O)c1ccccc1
44.2 µM: NCI-H522 lung
> 100 µM: SK-OV-3 ovarian | MDA-MB-231 breast | UACC-257 melanoma | NCI-H460 lung | SNB-75 CNS | M14 melanoma | SNB-19 CNS | HL-60(TB) leukemia | CCRF-CEM leukemia | ACHN renal | NCI-H226 lung | T-47D breast | SF-295 CNS | TK-10 renal | MOLT-4 leukemia | SK-MEL-5 melanoma | HS 578T breast | NCI/ADR-RES ovarian | SK-MEL-2 melanoma | A549 NSCLC | OVCAR-3 ovarian | NCI-H23 lung | HOP-62 NSCLC | BT-549 breast | U251 CNS | HCT-116 colon | SF-539 CNS | A498 renal | UO-31 renal | MDA-N | 786-0 renal | KM12 colon | OVCAR-4 ovarian | SW-620 colon | HOP-92 NSCLC | SF-268 CNS | HCT-15 colon | OVCAR-8 ovarian | CAKI-1 renal | DU-145 prostate | SK-MEL-28 melanoma | PC-3 prostate | UACC-62 melanoma | LOX IMVI melanoma | IGROV1 ovarian | COLO 205 colon | MDA-MB-435

C/C(=N\Nc1ccc([N+](=O)[O-])cc1[N+](=O)[O-])c1sc(-n2nc(-c3ccccc3)cc2-c2ccccc2)nc1C
33.8 µM: HT29 colon
44.5 µM: HL-60(TB) leukemia
46.8 µM: MOLT-4 leukemia | SR leukemia
77.4 µM: HOP-92 NSCLC
67.4 µM: COLO 205 colon
84.7 µM: UACC-257 melanoma
69.8 µM: NCI/ADR-RES ovarian
92.3 µM: A498 renal
50.9 µM: CCRF-CEM leukemia
63.9 µM: LOX IMVI melanoma
> 100 µM: SK-OV-3 ovarian | MDA-MB-231 breast | NCI-H460 lung | SNB-75 CNS | EKVX NSCLC | M14 melanoma | SNB-19 CNS | ACHN renal | NCI-H226 lung | T-47D breast | SN12C renal | SF-295 CNS | TK-10 renal | SK-MEL-5 melanoma | HS 578T breast | OVCAR-3 ovarian | NCI-H23 lung | HOP-62 NSCLC | BT-549 breast | U251 CNS | HCT-116 colon | SF-539 CNS | UO-31 renal | MCF7 breast | MDA-N | 786-0 renal | KM12 colon | OVCAR-4 ovarian | SW-620 colon | SF-268 CNS | HCT-15 colon | OVCAR-8 ovarian | CAKI-1 renal | HCC-2998 colon | DU-145 prostate | NCI-H522 lung | MALME-3M melanoma | SK-MEL-28 melanoma | UACC-62 melanoma | IGROV1 ovarian | OVCAR-5 ovarian | MDA-MB-435
41.4 µM: RPMI-8226 leukemia
